In patent publication US6875843B2, “Prevention of diabetes and prolongation of the honeymoon phase of diabetes by administration of GnRH antagonists” (Children's Mercy Hospital, priority 2001, dated 2005):

Key:
Type in all cases: in vivo, mouse
NOD mice [1] = test: Serum total immunoglobulin G in gonadectomized NOD mice (single radial immunodiffusion); conditions: 100 μg s.c. six times weekly, 8 weeks of treatment, vs vehicle (FIG. 3)
Source text: (§1) Mice. The well-characterized NOD mice were used throughout the study. Male and female mice were purchased from the Jackson Laboratory (Bar Harbor, Me.). These mice are art-recognized animal models used in diabetes research. (Makino et al., (1980) Breeding of a Non-obese Diabetic Strain of Mice. Exp Anim, 29, 1-13; Miyazaki, A. T., et al, (1985) Predominance of T Lymphocytes in Pancreatic Islets and Spleen in Prediabetic Non-Obese Diabetic (Nod) Mice: a Longitudinal Study. Clin Exp immunol, 60, 622-630)
Experimental Design. Both intact and gonadectomized mice (GDX) were used. […] To compare the effects of GnRH agonists and antagonists, gonadectomized animals were randomized at 14 to 18 days of age and begun immediately in one of the following main treatment groups: GnRH agonist; Antide; vehicle. One group of gonadectomized males was treated with Nal-Glu, as an additional control. […]
Clinical tests. Total immunoglobulin G concentrations were measured by single radial immunodiffusion assay using immunodiffusion plates containing monospecific antiserum for IgG (ICN Biomedicals, Inc., Costa Mesa, Calif. ). […] Glycosuria was scored by comparison to reference standards on a scale of 0 to 4 as follows: negative=0; 30 mg/dL=1; 100 mg/dL=2; 300 mg/dL=3;>1000 mg/dL=4.
Statistics. […] Percentages of mice remaining diabetes-free was assessed by Mantel-Haenszel methodology. […]

NOD mice [2] = test: Incidence and onset of diabetes in gonadectomized male NOD mice; conditions: for Timing of onset of diabetes: gonadectomized NOD mice; for Timing of onset of diabetes / Incidence of diabetes: 100 μg s.c. six times weekly (FIG. 4)
Source text: as §1
Experimental Design. Both intact and gonadectomized mice (GDX) were used. […] To compare the effects of GnRH agonists and antagonists, gonadectomized animals were randomized at 14 to 18 days of age and begun immediately in one of the following main treatment groups: GnRH agonist; Antide; vehicle. One group of gonadectomized males was treated with Nal-Glu, as an additional control.
(§2) Gonadectomy. Males were gonadectomized via a single scrotal incision under pentobarbital anesthesia.
(§3) Injections. GnRH (native decapeptide) was purchased from Bachem (Bubendorf, Switzerland). GnRH antagonist Antide (Acetyl-β-[2-Naphthyl]-D-Ala-D-p-Chloro-Phe-β-[3-Pyridyl]-D-Ala-Ser-Nε-[Nicotinoyl]-Lys-Nε-[Nicotinoyl]-D-Lys-Leu-Nε-[Isopropyl]-Lys-Pro-D-Ala-NH2) was supplied by Contraceptive Development Branch (NICHHD) of the National Institutes of Health and Ares-Serono (Randolph, Mass.). A second GnRH antagonist, Nal-Glu (acetyl-D2Nal1, D4CIPhe2, D3Pal3, Arg5, Dglu6 (AA), DAla10) was supplied by NICHHD and was used on a subset of mice. All references to GnRH agonist refer to the native decapeptide. Animals were injected subcutaneously in the nape of the neck six times weekly, in the a.m., with 100 μg of GnRH or GnRH antagonist in 100 μl of vehicle consisting of 50% propylene glycol and 50% double distilled water.
Clinical tests. Total immunoglobulin G concentrations were measured by single radial immunodiffusion assay using immunodiffusion plates containing monospecific antiserum for IgG (ICN Biomedicals, Inc., Costa Mesa, Calif. ). Serum glucoses were checked weekly using a One Touch Fast Take meter (Lifescan, Milpitas, Calif.) Urine was tested for glucose by urinalysis reagent strips (Miles, Inc., Elkhart Ind.). Glycosuria was scored by comparison to reference standards on a scale of 0 to 4 as follows: negative=0; 30 mg/dL=1; 100 mg/dL=2; 300 mg/dL=3;>1000 mg/dL=4.
Statistics. Serum immunoglobulin measurements were compared by two-tailed Student's paired t-tests. Percentages of mice remaining diabetes-free was assessed by Mantel-Haenszel methodology. (Mantel, N. (1966) Evaluation of Survival Data and Two New Rank Order Statistics Arising in its Consideration. Cancer Chemother Rep, 50, 163-70)

NOD mice [3] = test: Serum prolactin by radioimmunoassay in NOD mice; conditions: 100 μg s.c. six times weekly
Source text: as §3
Sera. Sera were collected from blood obtained every six weeks by retroorbital puncture after light isofluorane anesthesia.
Hormone measurements. Serum testosterone concentrations were measured by RIA using a commercial kit (Coat-A-Count, Diagnostic Products Corporation, Los Angeles, Calif.). Serum LH and prolactin were measured by radioimmunoassay (RIA) using previously described methods. […]

NOD mice [4] = test: Lymphocytic infiltration of islet cells, pancreatic histology in gonadectomized NOD mice; conditions: 100 μg s.c. six times weekly, 3, 5, 7, 9 and 11 weeks, vs vehicle (FIG. 5)
Description: In this example, gonadectomized NOD mice were treated with either the GnRH antagonist Antide or the vehicle (50% propylene glycol and 50% double distilled water) to determine differences in the rate of lymphocytic infiltration of islet cells.
Mice. The well-characterized NOD mice were used throughout the study. Male and female mice were purchased from the Jackson Laboratory (Bar Harbor, Me.). Again, these mice are art-recognized animal models used in diabetes research.
as §2
Injections. The mice were injected subcutaneously in the nape of the neck six times weekly, in the a.m., with 100 μg of the GnRH antagonist in 100 μl of vehicle consisting of 50% propylene glycol and 50% double distilled water.
Pancreatic Histology. Three mice per treatment group were euthanized at 3, 5, 7, 9, and 11 weeks. Pancreatic histologic sections were stained by hemotoxillin and eosin. Ten tissue sections per treatment group were examined. All […] in each tissue section were scored with regard to the presence or absence of lymphocytic infiltrates.

| Substance | Serum IgG concentrations (NOD mice [1]) | Timing of onset of diabetes (NOD mice [2]) | Incidence of diabetes (NOD mice [2]; gonadectomized male NOD mice) | Serum prolactin levels (NOD mice [3]) | Percentage of treated mice diabetic (NOD mice [2]; gonadectomized male NOD mice, 100 μg s.c. six times weekly, at 60 weeks of age, compared to vehicle (FIG. 4)) [%] | Lymphocytic infiltration of islets (percentages of islets infiltrated) (NOD mice [4]) |
| --- | --- | --- | --- | --- | --- | --- |
| GnRH agonist: GnRH native decapeptide purchased from Bachem; all references to GnRH agonist refer to the native decapeptide (QHWSYGLRPG; Gonadoliberin-1; UniProt P01148 24-33, looked up) | further increased IgG levels compared to vehicle | accelerated | significantly increased | neither agonist nor antagonist treatment altered serum prolactin levels |  |  |
| Acetyl-β-[2-Naphthyl]-D-Ala-D-p-Chloro-Phe-β-[3-Pyridyl]-D-Ala-Ser-Nε-[Nicotinoyl]-Lys-Nε-[Nicotinoyl]-D-Lys-Leu-Nε-[Isopropyl]-Lys-Pro-D-Ala-NH2 [Antide] | reduced serum IgG concentrations to levels seen in sham operated mice | delayed onset of diabetes | significantly decreased | neither agonist nor antagonist treatment altered serum prolactin levels | 0 | statistically significant reduction in lymphocytic infiltration |
